Experiments:
[1] = uncoated feed powder
[2] = Screen (mesh) particle size analysis; type: physicochemical; conditions: uncoated feed powder
[3] = uncoated feed powder; remark: listed apart in the source

Structure (SMILES): Cc1c(C)c2c(c(C)c1OC(=O)CCC(=O)O)CC[C@@](C)(CCC[C@H](C)CCC[C@H](C)CCCC(C)C)O2 [succinate (vitamin E), tocopherol succinate]
- moisture content [1]: 0.06 % by weight
- mean particle size [2]: about 200 mesh
- loose bulk density [3]: 0.38 g/cc

From patent US20050214367A1, “Processes for making coated phytochemicals and tocopherols and products formed therefrom” (priority 2004, published 2005)
